Laboratory results taken from article PMC4088952 (Psychoneuroendocrinology, 2014).
“And” between values parts separate entries of the source, which are not always exact repeats. Equal values may be shown once.

Key:
[1] = tested on: subjective drug effects; experiment: Drug Effects Questionnaire; assay type: in vivo, humans; conditions: oral MDMA; all subjective ratings (DEQ and VAS)
[2] = tested on: plasma OT levels; experiment: Plasma oxytocin levels after oral MDMA; assay type: in vivo, humans
[3] = tested on: heart rate and blood pressure; experiment: Cardiovascular measures; assay type: in vivo, humans; conditions: intranasal oxytocin 20 IU or 40 IU versus placebo

Compound	time of peak effects on all subjective ratings after capsule ingestion [1] [min]	plasma OT levels compared to placebo ([2]; oral MDMA 0.75 mg/kg, N=14, t[13] = 2.96, p = 0.07)	duration of plasma OT elevation ([2]; oral MDMA 1.5 mg/kg) [h]	time of mean peak plasma OT concentration after capsule ingestion ([2]; oral MDMA 1.5 mg/kg, N=14)	time to significantly elevated plasma OT following capsule administration ([2]; oral MDMA 1.5 mg/kg, first time point) [min]	cardiovascular and subjective effects [3]	plasma OT levels compared to placebo (intranasal oxytocin 20 IU, N=6)	duration of plasma OT elevation (intranasal oxytocin 40 IU) [min]	time of peak plasma OT after nasal spray administration (intranasal oxytocin 40 IU, N=8) [min]
CNC(C)Cc1ccc2c(c1)OCO2 (racemic) [MDMA, ±3,4-methylenedioxymethamphetamine]	60 to 120	slightly increased compared to placebo but this difference did not reach significance	3	90 to 120 min and 120 min	≤ 60	–	–	–	–
CC[C@H](C)[C@@H]1NC(=O)[C@H](Cc2ccc(O)cc2)NC(=O)[C@@H](N)CSSC[C@@H](C(=O)N2CCC[C@H]2C(=O)N[C@@H](CC(C)C)C(=O)NCC(N)=O)NC(=O)[C@H](CC(N)=O)NC(=O)[C@H](CCC(N)=O)NC1=O [Oxytocin, oxytocin]	–	–	–	–	–	no cardiovascular or subjective effects	did not observe an increase in plasma OT	30	30 to 60
